Assays:
[1] = tested on: alveolus formation (septation) in rat lung; experiment: Alveolus formation in newborn rat pups injected intraperitoneally daily (lung histology and morphometry); assay type: in vivo, Sprague-Dawley rat
Text: The expression of the RARβ receptor has been associated in certain cases with diminished cell replication. Following the initial injection, the rat pups were subjected to identical daily injections until day 13. A set of rat pups were sacrificed at day 4 and at […] by anesthesia with phenobarbitol sodium and scission of the abdominal aorta. Following sacrifice, rat lungs were fixed and histological sections prepared essentially as described in Massaro et al., Am. J. Physiol. 270: L305 (1996), incorporated by reference herein. The histological sections were viewed and photographs taken under light microscopy.
The differences in alveolar dimensions between treated and untreated rat pups were so pronounced, they were quantitated by measuring the distance between alveolar walls (Lm) and the surface-to-volume ratio (S/V) of the gas-exchange structures (septa). The Lm in cottonseed oil-treated rats was 80 μm±2.8 μm (N=4) compared to 110 μm±7.3 μm (N=3) in RARβ agonist-treated rats (N=3; P=0.03 by Mann Whitney nonparametric analysis). The S/V was 504 μm^−1±18 μm^−1 (N=4) in cottonseed oil-treated rats compared to 365 μm^−1±23 μm^−1 (N=3) in RARβ agonist-treated rats (P=0.03).

[2] = molecular target: T1, RARβ (Homo sapiens, UniProt P10826); experiment: RAR receptor activity as stated for the retinoid ligand; settings: ligand specific to RAR receptors and not to RXR receptors
T1 sequence (P10826 1-455): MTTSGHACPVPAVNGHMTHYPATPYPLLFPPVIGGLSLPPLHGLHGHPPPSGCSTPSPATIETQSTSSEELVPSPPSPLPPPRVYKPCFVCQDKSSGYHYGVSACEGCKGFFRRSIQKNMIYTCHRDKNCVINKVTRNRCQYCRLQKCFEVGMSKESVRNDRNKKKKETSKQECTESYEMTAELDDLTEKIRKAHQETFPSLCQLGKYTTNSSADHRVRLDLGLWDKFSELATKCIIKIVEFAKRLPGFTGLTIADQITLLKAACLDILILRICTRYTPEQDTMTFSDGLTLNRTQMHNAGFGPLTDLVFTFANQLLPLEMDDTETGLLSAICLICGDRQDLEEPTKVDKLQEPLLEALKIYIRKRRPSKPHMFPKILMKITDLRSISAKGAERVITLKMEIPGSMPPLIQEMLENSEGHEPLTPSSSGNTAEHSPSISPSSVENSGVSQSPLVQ
Text: Likewise, methods of screening candidate compounds for Specific RAR modulating activity is routine and well-known in the art. For example, U.S. Pat. No. 5,455,265, incorporated by reference herein, describes a chimeric receptor transactivation assay which tests for RAR-agonist activity in the RAR-α, RAR-β, RAR-γ, RXR-α receptor subtypes. Briefly, this assay employs chimeric proteins containing an RAR ligand-binding domain and a heterologous polypeptide segment having the ability to bind to a response element (RE), in turn facilitating transcription of a specific, measurable target gene, such as chloramphenicol acetyltransferase (CAT). Only an agonist of the given RAR isotype whose ligand binding domain comprises part of the chimeric protein will permit the activation of CAT transcription and expression. […] For example, those ligands able to stimulate CAT synthesis when used in combination with chimeric proteins having RAR binding domains, but not those having RXR ligand binding domains, will be RAR specific agonists.

[3] = tested on: alveolus formation in newborn rat lung; settings: newborn rats; cited from earlier work
[4] = tested on: elastase-induced destruction of alveolar walls; settings: elastase-treated rats; cited from earlier work

| SMILES | histological sections: alveolar size and degree of septation ([1]; age 14 days, treated daily from age 3 through 13 days, versus cottonseed oil alone (FIGS. 1A and 1B)) | distance between alveolar walls (Lm) ([1]; rat pups, 500 micrograms per kg i.p. daily from age 3 to 13 days, age 14 days, N=3, cottonseed oil control 80 μm±2.8 μm, P=0.03) | surface-to-volume ratio (S/V) of the gas-exchange structures ([1]; rat pups, 500 micrograms per kg i.p. daily from age 3 to 13 days, N=3, cottonseed oil control 504 μm^−1±18 μm^−1, P=0.03) | surface area ([1]; rat pups, 500 micrograms per kg i.p. daily from age 3 to 13 days, cottonseed oil control 634 cm^2 ±9 cm^2, P=0.03) | Lung volume ([1]; treated rats versus cottonseed oil-treated rats) | receptor activity [2] | effect on number of alveoli [3] | effect on elastase-induced alveolar wall destruction [4] |
| --- | --- | --- | --- | --- | --- | --- | --- | --- |
| CC1(C)CC=C(c2cccs2)c2cc(C#Cc3ccc(C(=O)O)cc3)ccc21 [AGN 193174] | alveoli were larger, and the degree of sepatation less | 110 μm | 365 μm^−1 | 492 cm^2 | the same in both rat groups | RARβ agonist activity | – | – |
| CC1=C(/C=C/C(C)=C/C=C/C(C)=C/C(=O)O)C(C)(C)CCC1 [all-trans-retinoic acid] | – | – | – | – | – | – | induced the formation of an increased number of alveoli in rats without enlarging the lung | appeared to reverse this destruction |

Source: patent publication US20010053758A1, “Methods and compositions for the treatment and prevention of lung disease” (priority 1999, published 2001)
